Experimental data reported in patent publication US9655884B2, “Antiparasitic use of isoxazoline compounds” (Intervet Inc., priority 2013, dated 2017).

Assay: Adverse events in treated dogs following administration
Assay type: in vivo
Settings: chewable tablet (Bravecto), close to 25 mg/kg body weight oral
Procedure: Twenty healthy male and female mixed-breed dogs ≧12 weeks old were housed in individual pens. Ten dogs per group were randomly assigned to receive either a fluralaner chewable tablet (Bravecto™) or no treatment. Each pen contained the bottom half of a dog carrier lined with carpet as bedding. Before treatment, each dog was infested twice (28 and 21 days pretreatment) with 100 adult, unfed C. felis to establish a flea population prior to treatment on each dog. Flea media was added to the carpet 4 weeks before the treatment date and weekly thereafter for the remainder of the study to encourage development of an active, developing population of juvenile flea stages in each pen. On the treatment day, dogs in the treated group received fluralaner at a dose close to 25 mg/kg body weight by oral administration. The chewable tablet(s) were administered by placement in the back of the oral cavity over the tongue to initiate swallowing. Dogs in the negative control group remained untreated.

## Cc1cc(C2=NOC(c3cc(Cl)cc(Cl)c3)(C(F)(F)F)C2)ccc1C(=O)NCC(=O)NCC(F)(F)F (stereo not shown) [fluralaner, 4-[5-(3,5-Dichlorophenyl)-5-trifluoromethyl-4,5-dihydroisoxazol-3-yl]-2-methyl-N-[(2,2,2-trifluoro-ethylcarbamoyl)-methyl]-benzamide]
  Adverse events: No adverse events were observed
